Values joined by “and” are separate entries in the source; they are usually repeats but may differ in a detail not shown here. Identical values can stand only once.
Legend:
[1] = tested on: HER2 overexpressing cells (SK-BR-3, BT-474, N87); test: Drug combinations with PB4188 in vitro (isobolograms); format: cell-based, human; settings: in the presence of HRG, matrigel or HRG stress concentrations
Method: Moreover, combination with chemotherapeutic drugs and cyclin inhibitors were tested. Combinations were tested on HER2 overexpressing cells growing in the presence of HRG in matrigel (SK-BR-3 and BT-474) or in the presence of HRG stress concentrations (N87 and SK-BR-3 as described in proliferation assays). The inhibitory effect of drug combinations was tested by imaging or by measuring proliferation using Alamar Blue as described herein before. […] The extent of growth inhibition obtained with each combination was calculated. […] The inhibition values of the combination experiments were used by CHALICE™ Analyzer software to generate the isobolograms.

[2] = tested on: intracranial ST1360B PDX tumors; test: Intracranial ST1360B PDX tumor model; format: in vivo, mouse
Method: The viability of total cells was greater than 80%. […] The cells were kept on ice until inoculation.
Drugs were diluted in sterile saline before each dosing. […] The dosing volume was 5.0 mL/kg.
The fixative: tissue ratio was at least 20:1.
Image analysis was performed using Horos.

[3] = compared to vehicle treated mice

Compound: Cc1nc(NC(=O)N2CCC[C@H]2C(N)=O)sc1-c1ccnc(C(C)(C)C(F)(F)F)c1 [BYL719]
- drug combination with PB4188 (isobologram analysis) [1]: synergistic

Compound: NC1(c2ccc(-c3nc4ccn5c(=O)[nH]nc5c4cc3-c3ccccc3)cc2)CCC1 [MK-2206]
- drug combination with PB4188 (isobologram analysis) [1]: synergistic

Compound: CO[C@H]1C[C@@H]2CC[C@@H](C)[C@@](O)(O2)C(=O)C(=O)N2CCCC[C@H]2C(=O)O[C@H]([C@H](C)C[C@@H]2CC[C@@H](OCCO)[C@H](OC)C2)CC(=O)[C@H](C)/C=C(\C)[C@@H](O)[C@@H](OC)C(=O)[C@H](C)C[C@H](C)/C=C/C=C/C=C/1C [everolimus]
- drug combination with PB4188 (isobologram analysis) [1]: synergistic

Compound: CS(=O)(=O)CCNCc1ccc(-c2ccc3ncnc(Nc4ccc(OCc5cccc(F)c5)c(Cl)c4)c3c2)o1 [lapatinib]
- drug combination with PB4188 (isobologram analysis) [1]: synergistic

Compound: CCOc1cc2ncc(C#N)c(Nc3ccc(OCc4ccccn4)c(Cl)c3)c2cc1NC(=O)/C=C/CN(C)C [neratinib]
- drug combination with PB4188 (isobologram analysis) [1]: synergistic

Compound: CC(=O)O[C@H]1C(=O)[C@@]2(C)[C@H]([C@H](OC(=O)c3ccccc3)[C@]3(O)C[C@H](OC(=O)[C@H](O)[C@@H](NC(=O)c4ccccc4)c4ccccc4)C(C)=C1C3(C)C)[C@]1(OC(C)=O)CO[C@@H]1C[C@@H]2O [paclitaxel]
- drug combination with PB4188 (isobologram analysis) [1]: synergistic

Compound: O=C(CCCCCCC(=O)Nc1ccccc1)NO [vorinostat]
- drug combination with PB4188 (isobologram analysis) [1]: synergistic

Compound: MCLA-128: bispecific antibody MCLA-128 directed against HER2 and HER3
- Brain edema score day 3 ([2]; MRI, scale 0-4 (0 no, 4 massive brain edema), individual mice, day 3 post initiation of therapy): 2 (2×) and 0 (2×) and 1 (4×)
- Brain edema score day 7 ([2]; MRI, scale 0-4, individual mice, day 7): 2 (4×) and 0 (2×) and 3 and 1
- Brain edema score day 10 ([2]; MRI, scale 0-4, individual mice, day 10): 2 (4×) and 0 (2×) and 3 and 1
- Brain edema score day 14 ([2]; MRI, scale 0-4, individual mice, day 14): 1 (4×) and 0 and 3 (3×)
- Brain edema score day 21 ([2]; MRI, scale 0-4, individual mice, day 21): 2 (2×) and 1 (3×) and 3 (3×)
- Brain edema score day 28 ([2]; MRI, scale 0-4, individual mice, day 28): 3 (4×) and 4
- Brain edema score day 35 ([2]; MRI, scale 0-4, individual mice, day 35): 3
- Brain edema score day 42 ([2]; MRI, scale 0-4, individual mice, day 42): 3
- Brain edema final score ([2]; MRI, scale 0-4, individual mice, last MR scan): 3 (4×) and 1 (3×) and 4
- tumor growth by T2-weighted MRI [2, 3]: tumor growth delay
- median survival ([2]; post therapy initiation, T-DM1 10 mg/kg qwk, MCLA-128 25 mg/kg twice wk, i.v., vehicle 13 days): 29 days

Compound: trastuzumab-emtansine [T-DM1, reference compound]
- tumor growth by T2-weighted MRI [2, 3]: Tumor growth was inhibited
- mean tumor volume 10 days post therapy ([2]; compared to vehicle treated mice, p<0.05): significantly smaller

From patent US20210206875A1, “ERBB-2 TARGETING AGENT AND A BISPECIFIC ANTIBODY WITH ANTIGEN-BINDING SITES THAT BIND AN EPITOPE ON AN EXTRACELLULAR PART OF ERB-2 AND ERBB-3, FOR TREATMENT OF AN INDIVIDUAL WITH AN ERBB-2, ERBB-2/ERBB-3 POSITIVE TUMOUR” (Merus N.V., priority 2017, published 2021)
